Read-outs that look alike come from different tables or passages of the source. Non-standard residues stand in square brackets, D forms with d. Residues, ends and D or L forms follow the SMILES beside them. β3hF = N[C@H](CC(=O)O)Cc1ccccc1
What was measured:
[1] = system: CBA mice, cellular immune response to ovalbumin; test: Delayed type hypersensitivity (DTH) test to ovalbumin; type: in vivo; conditions: two 100 μg intraperitoneal doses; FIG. 7
Experimental: Male CBA mice 8-12 weeks old were delivered by The Institute of Laboratory Medicine, Lodz, Poland. The mice had free access to water and pelleted food. Ovoalbumin was from Sigma and the adjuvants from Difeo.
Mice were sensitized subcutaneously with 5 μg of ovalbumin (OVA) emulsified in Freund's complete adjuvant in the tail base. After 4 days the mice were challenged with 50 μg of OVA in Freund's incomplete adjuvant in the hind footpads. Following the next 24 hours, the footpad thickness was measured using a caliper. Controls (background response mice) were not sensitized but received the challenging dose of OVA. The compound of formula I-A and the reference compound were administered to mice in two 100 μg intraperitoneal doses, 2 h before and 24 h after the sensitizing dose of antigen.

[2] = system: LPS-induced TNF-α production; type: cell-based; conditions: for % inhibition vs. DMSO / TNF-α: Table 2A
Experimental: Human whole blood was diluted 10-fold with RPMI-1640 medium and distributed to 24-well culture plates in 1 ml aliquots. LPS was added to the culture at a concentration of 1 μg/ml. The studied peptides were used at concentrations of 1, 10 and 100 μg/ml. After overnight incubation, the supernatants were harvested and frozen at −20° C. until cytokine determination. TNF-α activity was determined using a bioassay. Briefly, WEHI 164.13 cells (ATCC CRL 1751) were seeded at a concentration of 2×10^4 cells/well in quadriplicate. Increasing dilutions of the assayed supernatant were mixed with the target cells in the presence of actinomycin D (1 μg/ml). After 20 h of incubation, MTT was added into the wells, and the cultures were incubated for an additional 4 h. […] The detection limit of the assay was about 2.5 pg/ml. One unit of TNF-α activity was defined as an inverse of supernatant dilution where 50% cell death took place. The cultures labeled “Control (−)” contained no LPS. The cultures labeled “Control (LPS)” contained LPS and none of the studied compounds. Statistical analysis was not applied since the data derive from single cultures (wells).

[3] = system: CBA mice, humoral immune response to sheep erythrocytes; test: Primary humoral immune response to SRBC in vivo (antibody-forming cells in spleen); conditions: 10 or 100 μg, intraperitoneal, 2 h after immunization, measured after 4 days; FIG. 6
Experimental: CBA female mice, 8-12 weeks old, were delivered by The Institute of Laboratory Medicine, Lodz, Poland. The mice had free access to water and pelleted food. The local ethics committee approved the study. Sheep erythrocytes (SRBC) were delivered by Wroclaw University of Life and Environmental Sciences, Poland, and maintained on RPMI-1640 medium.
Mice were immunized with 0.2 ml of 5% SRBC suspension (0.5 ml of SRBC pellet re-suspended to a volume of 10 ml of 0.9% NaCl), intraperitonelly. After 4 days the number of antibody-forming cells (AFC) in the spleens was determined using an assay of local hemolysis in agar gel (per Mishell et al., J Exp Med, 1967, 126, 423-442). The results are presented in FIG. 6 as a mean value of 5 mice ±standard error and expressed as AFC number per 10^6 of viable splenocytes.
Mice were immunized with SRBC as described above and after 2 h were given 10 or 100 μg of the compound of formula I-A. Cyclosporin A (CsA) served as a reference drug. The number of antibody-forming cells to SRBC was measured after 4 days.

[4] = system: mice, carrageenan-induced foot pad edema; test: Carrageenan-induced foot-pad edema test; type: in vivo, mouse; conditions: 4 h after carrageenan; peptides 250 μg i.p., DEX 25 μg i.p., 30 min before; FIGS. 17A-17C
Method in brief: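 Mice received peptide 250 μg i.p. (DMSO/0.9% NaCl vehicle) 30 min before intradermal injection of 50 μl 2% carrageenan into the hind foot pad; dexamethasone 25 μg i.p. as reference. Foot-pad thickness measured by spring caliper at 2, 3 and 4 h; mean increase in mm ±SE, 5 mice/group.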

## O=C1C[C@H](Cc2ccccc2)NC(=O)[C@@H]2CCCN2C(=O)[C@@H]2CCCN2C(=O)[C@H](Cc2ccccc2)N1 [I-A] (cyclo(FPP[β3hF]))
[1]
  effect on delayed-type hypersensitivity reaction to OVA (footpad thickness): inhibited the delayed-type hypersensitivity reaction to OVA
  suppressive action on DTH compared with reference compounds: stronger than those of CLA and CsA
[2]; compound 1 μg/ml
  % inhibition vs. DMSO: 9.8%
[2]; compound 1 μg/ml, LPS 1 μg/ml, overnight
  TNF-α: 7364 pg/mL
[2]; compound 10 μg/ml
  % inhibition vs. DMSO: 10.4%
  TNF-α: 7176 pg/mL
[2]; compound 100 μg/ml
  % inhibition vs. DMSO: 9.2%
[2]; compound 100 μg/ml (DMSO only: 196)
  TNF-α: 178 pg/mL
[2]; Table 2B, compound 1 μg/ml
  % of inhibition vs. DMSO: 10.0%
  TNF alpha: 4097 pg/mL
[2]; Table 2B, compound 10 μg/ml
  TNF alpha: 4416 pg/mL
[2]; Table 2B, compound 100 μg/ml (DMSO only: 854)
  TNF alpha: 979 pg/mL
[3]
  inhibition of the number of antibody-forming cells to SRBC: more inhibitory at both doses than CsA
[4]
  foot pad edema (increase of foot pad thickness), P vs Control: 0.0001

Reference: patent US10238713B2, “Cyclic tetrapeptides and therapeutic applications thereof” (LODZ UNIVERSITY OF TECHNOLOGY, priority 2010, dated 2019)
